Reference: paper PMC11241395 (International Journal of Molecular Sciences, 2024)
Entries after “also recorded” stand apart in the source; their conditions may differ. Read-outs that look alike come from different tables or passages of the source.

Key:
[1] = tested on: U-87 (human glioblastoma); experiment: MTT cytotoxicity assay, U-87; format: cell-based; conditions: read-out: IC50 (SD), U-87
Protocol: (§1) This activity was evaluated in vitro using the standard MTT method (enzymatic reduction of 3-[4,5-dimethylthiazole-2-yl]-2,5-diphenyltetrazolium bromide, MTT, to MTT-formazan) based on a viability assay.
(§2) Cytotoxic activity: Human cancer cells SKBR-3 (human breast cancer cell line) and SKOV-3 (ovarian cancer cell line) were cultured in McCoy’s Modified Medium. Human cancer cells PC-3 (human prostate cancer cell line) were cultured in an F-12K medium. The Human Dermal Fibroblast (HDF) cell line was cultured in Fibroblast Basal Medium. The U-87 cell line was cultured in EMEM medium. Each medium was supplemented with 10% foetal bovine serum, 1% L- glutamine, and 1% penicillin/streptomycin solution. The cell lines were kept in an incubator at 37 °C. All the cell lines and mediums were obtained from the American Type Culture Collection (ATCC) supplied by LGC-Standards (Lomianki, Poland).
(§3) The MTT assay was conducted as described earlier.

[2] = tested on: HDF (regular fibroblast cell line); experiment: MTT cytotoxicity assay, normal HDF cells; format: cell-based; conditions: Homo sapiens, read-out: IC50 (SD), HDF
Protocol: as §1, §2, §3

[3] = tested on: SKOV-3 (human ovarian cystadenocarcinoma); experiment: MTT cytotoxicity assay, SKOV-3; format: cell-based; conditions: SK-OV-3, read-out: IC50 (SD), SKOV-3
Protocol: as §1, §2, §3

[4] = tested on: SKBR-3, SKOV-3, PC-3, and U-87 cancer cell lines; experiment: MTT cytotoxicity assay, four cancer cell lines taken together; format: cell-based, human; conditions: span over the four cancer cell lines
Protocol: as §1, §2, §3

[5] = tested on: SKBR-3 (human breast adenocarcinoma); experiment: MTT cytotoxicity assay, SKBR-3; format: cell-based; conditions: SK-BR-3, read-out: IC50 (SD), SKBR-3
Protocol: as §1, §2, §3

[6] = tested on: PC-3 (human prostate carcinoma); experiment: MTT cytotoxicity assay, PC-3; format: cell-based; conditions: read-out: IC50 (SD), PC-3
Protocol: as §1, §2, §3

[7] = DPPH radical-scavenging assay; conditions: sample 1.0 mg/mL in DMSO, 30 min, 517 nm; compared with OA (1)
Protocol: The results are presented as % inhibition of the DPPH radical and Trolox equivalent, calculated from the standard curve (Figure 4). Activity assays were performed in eight repetitions.
The 2,2-diphenyl-1-picrylhydrazyl (DPPH) assay was performed according to Garbiec et al. with modifications. Briefly, 25 μL of the sample at a concentration of 1.0 mg/mL dissolved in dimethyl sulfoxide (DMSO) was mixed with 175 μL of DPPH solution (3.9 mg in 50 mL of methanol). The reaction mixture was shaken and incubated in the dark at room temperature for 30 min. The control sample contained 25 μL of DMSO and 175 μL of DPPH solution. Absorbance was measured at 517 nm. The inhibition of the DPPH radical by the sample was calculated according to the following formula: DPPH-scavenging activity (%) = ((AC − AS)/AC) × 100% where AC is the absorbance of the control and AS is the absorbance of the sample.
The results were presented as % inhibition of the DPPH radical and Trolox equivalent, calculated from the standard curve. Activity assays were performed in 8 repetitions.

| Compound | melting point | IC50 [1] | IC50 ([2]; HDF) | IC50 [3] | IC50 ([4]; Homo sapiens) | IC50 [5] | IC50 [6] | IC50 [2] | DPPH radical inhibition expressed as Trolox equivalent [7] | IC50 [4] |
| --- | --- | --- | --- | --- | --- | --- | --- | --- | --- | --- |
| CC1(C)CC[C@]2(C(=O)OCOC(=O)[C@]34CCC(C)(C)CC3C3=CCC5[C@@]6(C)CC[C@H](O)C(C)(C)C6CC[C@@]5(C)[C@]3(C)CC4)CC[C@]3(C)C(=CCC4[C@@]5(C)CC[C@H](O)C(C)(C)C5CC[C@]43C)C2C1 (stereo partly shown) (hydrate or solvate) [Compound 2a] | 183 to 185 °C | – | – | – | – | – | – | – | – | – |
| CC1(C)CC[C@]2(C(=O)O)CC[C@]3(C)C(=CC[C@@H]4[C@@]5(C)CC[C@H](O)C(C)(C)[C@@H]5CC[C@]43C)[C@@H]2C1 [1 (OA), Oleanolic acid, reference compound] | – | 18.2 µM | ~25 µM | 18.8 µM | 18 to 19 µM | 19.6 µM | – | – | – | – |
| CC1(C)CC[C@]2(C(=O)OCOC(=O)[C@]34CCC(C)(C)CC3C3=CCC5[C@@]6(C)CC[C@H](O)C(C)(C)C6CC[C@@]5(C)[C@]3(C)CC4)CC[C@]3(C)C(=CCC4[C@@]5(C)CC[C@H](O)C(C)(C)C5CC[C@]43C)C2C1 (stereo partly shown) [Compound 2a] | – | 3.32 µM | – | 3.89 µM | 3.06 to 4.58 µM | 3.96 µM | 3.38 µM | 6.56 µM | by far the highest activity; also recorded: significantly higher | – |
| CC1(C)CC[C@]2(C(=O)OCCOC(=O)[C@]34CCC(C)(C)CC3C3=CCC5[C@@]6(C)CC[C@H](O)C(C)(C)C6CC[C@@]5(C)[C@]3(C)CC4)CC[C@]3(C)C(=CCC4[C@@]5(C)CC[C@H](O)C(C)(C)C5CC[C@]43C)C2C1 (stereo partly shown) [Compound 2b] | – | 6.59 µM | – | 6.49 µM | 4.79 to 8.22 µM | 6.67 µM | 6.43 µM | 11.2 µM | highest level of antioxidant activity; also recorded: significantly higher | – |
| CC1(C)CC[C@]2(C(=O)OCCCOC(=O)[C@]34CCC(C)(C)CC3C3=CCC5[C@@]6(C)CC[C@H](O)C(C)(C)C6CC[C@@]5(C)[C@]3(C)CC4)CC[C@]3(C)C(=CCC4[C@@]5(C)CC[C@H](O)C(C)(C)C5CC[C@]43C)C2C1 (stereo partly shown) [Compound 2c] | – | 7.46 µM | – | 8.22 µM | 4.79 to 8.22 µM | 7.64 µM | 7.4 µM | 18.9 µM | – | – |
| CC1(C)CC[C@]2(C(=O)OCCCCOC(=O)[C@]34CCC(C)(C)CC3C3=CCC5[C@@]6(C)CC[C@H](O)C(C)(C)C6CC[C@@]5(C)[C@]3(C)CC4)CC[C@]3(C)C(=CCC4[C@@]5(C)CC[C@H](O)C(C)(C)C5CC[C@]43C)C2C1 (stereo partly shown) [Compound 2d] | – | 1.2 µM | – | 1.56 µM | – | 1.12 µM | 1.64 µM | 2.95 µM | – | – |
| CC1(C)CC[C@]2(C(=O)OC/C=C\COC(=O)[C@]34CCC(C)(C)CC3C3=CCC5[C@@]6(C)CC[C@H](O)C(C)(C)C6CC[C@@]5(C)[C@]3(C)CC4)CC[C@]3(C)C(=CCC4[C@@]5(C)CC[C@H](O)C(C)(C)C5CC[C@]43C)C2C1 (stereo partly shown) [Compound 2e] | – | 2.74 µM | – | 2.09 µM | – | 2.61 µM | 2.27 µM | 2.68 µM | – | – |
| CC1(C)CC[C@]2(C(=O)OC/C=C/COC(=O)[C@]34CCC(C)(C)CC3C3=CCC5[C@@]6(C)CC[C@H](O)C(C)(C)C6CC[C@@]5(C)[C@]3(C)CC4)CC[C@]3(C)C(=CCC4[C@@]5(C)CC[C@H](O)C(C)(C)C5CC[C@]43C)C2C1 (stereo partly shown) [Compound 2f] | – | 4.91 µM | – | 4.79 µM | 4.79 to 8.22 µM | 5.09 µM | 5.11 µM | 2.78 µM | highest level of antioxidant activity; also recorded: significantly higher | – |
| CC1(C)CC[C@]2(C(=O)OCCCCCOC(=O)[C@]34CCC(C)(C)CC3C3=CCC5[C@@]6(C)CC[C@H](O)C(C)(C)C6CC[C@@]5(C)[C@]3(C)CC4)CC[C@]3(C)C(=CCC4[C@@]5(C)CC[C@H](O)C(C)(C)C5CC[C@]43C)C2C1 (stereo partly shown) [Compound 2g] | – | 5.32 µM | – | 5.16 µM | 4.79 to 8.22 µM | 5.21 µM | 5.8 µM | 3.37 µM | – | – |
| CC1(C)CC[C@]2(C(=O)OCCCCCCOC(=O)[C@]34CCC(C)(C)CC3C3=CCC5[C@@]6(C)CC[C@H](O)C(C)(C)C6CC[C@@]5(C)[C@]3(C)CC4)CC[C@]3(C)C(=CCC4[C@@]5(C)CC[C@H](O)C(C)(C)C5CC[C@]43C)C2C1 (stereo partly shown) [Compound 2h] | – | 5.87 µM | – | 5.39 µM | – | 6.02 µM | 5.34 µM | 17.3 µM | – | – |
| CC1(C)CC[C@]2(C(=O)OCCCCCCCOC(=O)[C@]34CCC(C)(C)CC3C3=CCC5[C@@]6(C)CC[C@H](O)C(C)(C)C6CC[C@@]5(C)[C@]3(C)CC4)CC[C@]3(C)C(=CCC4[C@@]5(C)CC[C@H](O)C(C)(C)C5CC[C@]43C)C2C1 (stereo partly shown) [Compound 2i] | – | 3.06 µM | – | 3.68 µM | 3.06 to 4.58 µM | 3.46 µM | 3.16 µM | 5.39 µM | – | – |
| CC1(C)CC[C@]2(C(=O)OCCCCCCCCOC(=O)[C@]34CCC(C)(C)CC3C3=CCC5[C@@]6(C)CC[C@H](O)C(C)(C)C6CC[C@@]5(C)[C@]3(C)CC4)CC[C@]3(C)C(=CCC4[C@@]5(C)CC[C@H](O)C(C)(C)C5CC[C@]43C)C2C1 (stereo partly shown) [Compound 2j] | – | 10.7 µM | – | 10.3 µM | 9.81 to 10.7 µM | 9.99 µM | 9.81 µM | 16 µM | – | – |
| CC1(C)CC[C@]2(C(=O)OCCCCCCCCCOC(=O)[C@]34CCC(C)(C)CC3C3=CCC5[C@@]6(C)CC[C@H](O)C(C)(C)C6CC[C@@]5(C)[C@]3(C)CC4)CC[C@]3(C)C(=CCC4[C@@]5(C)CC[C@H](O)C(C)(C)C5CC[C@]43C)C2C1 (stereo partly shown) [Compound 2k] | – | 7.34 µM | – | 6.89 µM | 4.79 to 8.22 µM | 6.93 µM | 6.93 µM | 16.8 µM | – | – |
| CC1(C)CC[C@]2(C(=O)OCCCCCCCCCCOC(=O)[C@]34CCC(C)(C)CC3C3=CCC5[C@@]6(C)CC[C@H](O)C(C)(C)C6CC[C@@]5(C)[C@]3(C)CC4)CC[C@]3(C)C(=CCC4[C@@]5(C)CC[C@H](O)C(C)(C)C5CC[C@]43C)C2C1 (stereo partly shown) [Compound 2l] | – | 18.7 µM | – | 18.4 µM | 18.4 µM | 18.7 µM | 18.4 µM | 36.3 µM | – | 18.7 µM |
| CC1(C)CC[C@]2(C(=O)OCCCCCCCCCCCOC(=O)[C@]34CCC(C)(C)CC3C3=CCC5[C@@]6(C)CC[C@H](O)C(C)(C)C6CC[C@@]5(C)[C@]3(C)CC4)CC[C@]3(C)C(=CCC4[C@@]5(C)CC[C@H](O)C(C)(C)C5CC[C@]43C)C2C1 (stereo partly shown) [Compound 2m] | – | 4.25 µM | – | 4.58 µM | 3.06 to 4.58 µM | 3.93 µM | 3.91 µM | 7.43 µM | – | – |
| CC1(C)CC[C@]2(C(=O)OCCCCCCCCCCCCOC(=O)[C@]34CCC(C)(C)CC3C3=CCC5[C@@]6(C)CC[C@H](O)C(C)(C)C6CC[C@@]5(C)[C@]3(C)CC4)CC[C@]3(C)C(=CCC4[C@@]5(C)CC[C@H](O)C(C)(C)C5CC[C@]43C)C2C1 (stereo partly shown) [Compound 2n] | – | 6.51 µM | – | 7.41 µM | 4.79 to 8.22 µM | 6.79 µM | 6.96 µM | 7.3 µM | – | – |
